Series [1] deals with genomic albumin (Alb) locus, mouse liver. Kind of series: In vivo gene targeting with rAAV8 Alb-P2A-hF9 vector, serum hF9 by ELISA. The conditions noted are these: for serum hF9 protein levels: vs vehicle; for serum hF9 levels: 2 months after AAV injection; for hF9 expression (plasma/serum hF9 levels): mice, drug ip three sequential days, rAAV8 Alb/F9 on first day, vs controls. The method, then:
FIG. 5 Depicts results from in vivo delivery of AAV-based HR in mice. A schematic depicts the injection schedule. rAAV was used to deliver a donor sequence encoding human coagulation factor IX (hF9) into the genomic Albumin (Alb) locus. Plasma hF9 expression in the mouse liver was measured as an assay to detect integration and expression of the integrated donor sequence. […] Experimental plan and time schedule: each drug was given three sequential days by ip injection and AAV was injected at first day with 1e11 vector genome (vg)/g body weight. Serum samples were collected at each time point and hF9 levels were measured by ELISA. Body weight of each mouse were measured to monitor the toxic effect of each drug.
The efficacy of RNR inhibitors in vivo was tested using an AAV8 vector that incorporates a Alb/F9 targeting sequence. The “Alb/F9” targeting vector was an AAV that included a donor DNA having a nucleotide sequence of interest flanked by homology arms that facilitated integration of the sequence of interest into the genomic albumin (Alb) locus. The nucleotide sequence of interest in this case was a 2A peptide sequence 5′ of a sequence encoding human coagulation factor IX (hF9). Thus, once integrated into the genomic locus, the 2A peptide sequence was present between the endogenous albumin coding sequence and the introduced/integrated hF9 coding sequence such that expression of hF9 mRNA was under the control of the albumin promoter but translation of the transcript led to two separate proteins (albumin and hF9). […] Thus, the lack of efficacy observed based on hF9 liver expression (see FIG. 5) is likely due to low/substantially no HU in the liver (FIG. 6). Given the in vitro HU results and the in vitro and in vivo fludarabine results—in addition to the gemcitabine results of FIG. 7, it is likely and expected that AAV-based HR is enhanced in vivo by HU in organs/tissues other than the liver (e.g., kidney, spleen, heart, lung, testes, brain, etc.).
B6 mice were received tail vain injections of rAAV8 packaging each vector at the designated dose and were bled at indicated time points. Body weight of mice were measured using Scout pro portable scale (Ohaus) at indicated time points. Serum samples were obtained by centrifuge at 10,000 rpm for 10 minutes and used for ELISA assay of hF9. Hydroxyurea or fludarabine was resuspended in PBS and were injected intraperitoneally with indicated dose/regimen. For BrdU labeling of proliferating mice hepatocytes, BrdU was resuspended in PBS and were intraperitoneally injected for indicated time periods at 200 mg/kg per day for 3 days or 7 days. Diethylnitrosamine solution was prepared using saline and was also intraperitoneally injected for 3 days at 10 or 30 mg/kg. At the end of experiments, mice were anesthetized with isoflurane and perfused transcardially with PBS and then liver tissues were quickly harvested and cut into several pieces. The tissues for mRNA extractions were immediately submerged in RNAlater solution (Sigma) and stored at 4° C. until use. For gDNA or protein extraction, tissues were snap-frozen in liquid nitrogen and stored at −80° C. until use.
(§1) Mice serum samples were used to quantify hF9 protein expression levels. ELISA for hF9 was performed as previously described with the following antibodies: mouse anti-hF9 IgG primary antibody at 1:1,000 (Sigma Cat#F2645), and polyclonal goat anti-hF9 peroxidase-conjugated IgG secondary antibody at 1:4,000 (Enzyme Research Cat#GAFIX-APHRP).
For orientation: In an ELISA, binding on a coated surface is turned into a signal by an enzyme label.

Series [2] in a line: Body weight of treated mice. The conditions noted are these: for body weight: mice, drug ip three sequential days plus rAAV8 Alb/F9, relative to controls.
For another series, the system named is mouse liver. Nature of the series: qPCR of liver DNA and mRNA after Alb-P2A-hF9 vector injection.
The test system of the next series is P Ser139 γH2AX. Nature of the series: P Ser139 γH2AX DNA damage response in mouse liver (IHC, Western blot). In general terms: Immunoblotting shows a protein as a band on a membrane.
The test system of the next series is Huh7 cells. Nature of the series: AAV-HR efficiency, AAV-DJ GAPDH/GFP targeting vector, GFP positive cells by FACS. Type of series: cell-based, human. The conditions noted are these: for AAV-HR efficiency (GFP positive fraction): FIG. 7, drug pretreatment 16 hours, washed out, FACS 14 days after infection; for AAV-HR efficiency (GFP positive fraction) / HR efficiency (GFP positive population by FACS analysis): Huh7; for HR efficiency (GFP positive population by FACS analysis): AAV-DJ GAPDH targeting vector. A general note: A flow cytometer gives signals particle by particle.

A further series concerns hepatocytes of mice. Kind of series: RNAscope in situ hybridization of hF9 mRNA in liver sections. In kind it is in vivo. Conditions: vs PBS treated mouse.
A further series relates to murine ApoE locus. Kind of series: In vivo gene targeting with rAAV8-ApoE-P2A-hF9 vector, serum hF9. Conditions: vs PBS. Set-up: species or system mouse. The procedure: Serum was collected at various times across a nearly 60-day time course and hF9 protein levels were determined. Error bars represent s.e.; n=4
Also examined was whether fludarabine-mediated enhancement of gene targeting was Albumin specific—this was done by designing a vector targeting an alternative genomic locus, ApoE. ApoE is highly and specifically expressed in hepatocytes, similar to Albumin. When 1.0×10^11 vg/mouse of this vector (ApoE-P2A-hF9) was injected with fludarabine treatment, a significant increase in hF9 expression compared to PBS-injected mice was observed (FIG. 12). The fold-increase (3.6-fold at day 54) was similar to findings targeting the Albumin locus.
as §1

Another series has as its system hepatocytes. Kind of series: BrdU incorporation in mouse liver (hepatocyte proliferation). In kind it is in vivo.
Series [3] deals with Albumin gene locus, mouse hepatocytes. Kind of series: CRISPR/Cas9-mediated gene editing in vivo, SaCas9-sgRNA8 plus rAAV8-Alb-P2A-GFP, GFP staining of liver. The conditions noted are these: vs PBS, Alb-P2A-GFP 6.0×10^12 or 3.0×10^13 vg/kg, 2 weeks after AAV injection.

Results on five molecules are retold here after patent publication US20220275403A1, “Methods And Compositions For Enhancing AAV-Mediated Homologous Recombination Using Ribonucleotide Reductase Inhibitors” (The Board of Trustees of the Leland Stanford Junior …, priority 2019, published 2022).

Entries after “also recorded” stand apart in the source; their conditions may differ.

On to `CCN(CC)N=O` [DEN, diethylnitrosamine], for which the “serum hF9 protein levels” value was approximately 1.5 fold in [1] (DEN 10 mg/kg, not statistically significant) and “about 3.6 fold” in [1] (DEN 30 mg/kg, three weeks post rAAV injection). For the same molecule, the body weight gains result in [2] (DEN 10 or 30 mg/kg i.p. once per day for three days, vs vehicle, dose-dependent) is “decreased body weight gains”. In addition, the “endogenous albumin mRNA expression” value with mouse liver (DEN 10 or 30 mg/kg, liver) is reported as “nearly unchanged”. For the same molecule, the “total hF9 mRNA expression” value turned out to be 3.9 fold in the series on mouse liver (DEN high dose (30 mg/kg), liver, vs vehicle) and 2 fold with mouse liver (DEN low dose (10 mg/kg), liver, vs vehicle). Further, the “on-target HR derived fusion Alb-P2A-hF9 mRNA” value in the series with mouse liver (DEN, both dose groups, liver, vs vehicle) is recorded as “about 2 fold”. Also, in the series on P Ser139 γH2AX (DEN-treated mice, positive control), the “γH2AX staining of liver sections (IHC)” value is on record as “intense nuclear staining of γH2AX”.
With `Nc1ccn([C@@H]2O[C@H](CO)[C@@H](O)C2(F)F)c(=O)n1` [Gemcitabine], in the series with Huh7 cells, the “AAV-HR efficiency (GFP positive fraction)” value is recorded as “enhanced AAV-HR efficiency” and the “HR efficiency (GFP positive population by FACS analysis)” value is reported as “reproducibly increased HR efficiency”.
Regarding `Nc1nc(F)nc2c1ncn2[C@@H]1O[C@H](CO)[C@@H](O)[C@@H]1O` [Fludarabine, (2R,3S,4S,5R)-2-(6-amino-2-fluoropurin-9-yl)-5-(hydroxymethyl)oxolane-3,4-diol], the “AAV-HR efficiency in cultured cells” value in the series with Huh7 cells (FIG. 4, Hun7 cells) is “significantly enhanced AAV-HR efficiency”. Besides, in the series on Huh7 cells (FIG. 4, vs no RNR inhibitor), the “increase in HR efficiency” value is on record as 3.5 fold. Besides, the “HR efficiency (GFP positive population by FACS analysis)” value in the series on Huh7 cells is given as “reproducibly increased HR efficiency”. Besides, the “serum hF9 levels” value in series [1] (Flu 125 mg/kg i.p. 3 times per day for five days, vs PBS) is recorded as 6.4 fold; in [1] (single administration (1 day) of fludarabine) it was “about 2 fold”. Moreover, the “hF9 expression / gene targeting efficiency with delayed dose” value in series [1] (fludarabine 125 mg/kg i.p. three times per day on days 28-30 after rAAV, serum day 54) was “little to no effect; also recorded: failed to increase the efficiency of gene targeting”. Further, the “hF9 expression (plasma/serum hF9 levels)” value was “increased hF9 expression” in series [1]; “significantly and consistently increased serum hF9 levels” in [1] (listed as fludarabine). Also, the entries for the “frequency of hF9 mRNA positive cells” value in the series with hepatocytes of mice and with hepatocytes of mice (listed as fludarabine) were “increased the number of hF9 positive hepatocytes” and “clearly more frequent”, respectively. The “fold-increase in hF9 expression” value with murine ApoE locus (ApoE-P2A-hF9 1.0×10^11 vg/mouse, day 54) was found to be 3.6 fold. Also, the “efficiency of gene targeting at the ApoE locus (serum hF9)” value in the series with murine ApoE locus (nearly 60-day time course) is “increased the efficiency of gene targeting at the ApoE locus”. Moreover, the “BrdU incorporation in liver” value with hepatocytes (BrdU for three days in washout phase after fludarabine, vs acute phase) is “significantly greater”. Further, the “BrdU labeled nuclei in liver sections” value in the series on hepatocytes (BrdU given during fludarabine 125 mg/kg three times per day for three days (acute phase)) is given as “nearly absent”. The results for the “number of GFP positive hepatocytes” value in [3] and in [3] (listed as fludarabine) were “increased the efficiency of CRISPR/Cas9-mediated gene editing” and “increase of the number of GFP positive hepatocytes”, respectively. The figures for the body weight entry in series [2] and in series [2] (listed as fludarabine) were “without any body weight change” and “without any body weight loss”, respectively. The endogenous albumin expression entry with mouse liver (liver mRNA, fludarabine treatment) is listed as “not changed”. Besides, the “on-target integrated Alb-P2A-hF9 fusion mRNA expression” value in the series on mouse liver (liver, vs PBS, normalized to Actb) was found to be 5.1 fold. The “total hF9 mRNA” value in the series on mouse liver (liver, vs controls, vector-internal primer set) worked out at 4.4 fold. Further, in the series on P Ser139 γH2AX (acute phase of fludarabine treatment), the “γH2AX in liver tissue lysates (Western blotting)” value was “strong detection of γH2AX”. Moreover, the “γH2AX foci in liver (IHC)” value was “significantly reduced” with P Ser139 γH2AX (three-day washout after fludarabine, vs immediately proximal to treatment) and “widespread nuclear localized γH2AX foci” in the series with P Ser139 γH2AX (time proximate to fludarabine treatment).
In the case of `NC(=O)NO` [Hydroxyurea, hydroxyurea], the “hF9 expression (plasma/serum hF9 levels)” value in [1] is on record as “did not exhibit enhancement of hF9 expression”.
As for `COc1cc([C@@H]2c3cc4c(cc3[C@@H](O[C@@H]3O[C@@H]5CO[C@@H](c6cccs6)O[C@H]5[C@H](O)[C@H]3O)[C@H]3COC(=O)[C@H]23)OCO4)cc(OC)c1O` [Teniposide, teniposide], in the series on Huh7 cells, the “AAV-HR efficiency (GFP positive fraction)” value is “no effect” and the “HR efficiency (GFP positive population by FACS analysis)” value is “no effect”.
